Values of other authors as cited in patent publication US20210008004A1, “CANNABINOID FORMULATIONS AND METHODS INCLUDING THE ANTIOXIDANT C60” (priority 2017, published 2021).

What was measured:
[1] = system: rodent
[2] = target: CB1 receptor (Homo sapiens, UniProt P21554)
[3] = target: peripheral CB2-receptors (Homo sapiens, UniProt P34972); conditions: in vivo
Sequence of peripheral CB2-receptors (P34972 whole entry): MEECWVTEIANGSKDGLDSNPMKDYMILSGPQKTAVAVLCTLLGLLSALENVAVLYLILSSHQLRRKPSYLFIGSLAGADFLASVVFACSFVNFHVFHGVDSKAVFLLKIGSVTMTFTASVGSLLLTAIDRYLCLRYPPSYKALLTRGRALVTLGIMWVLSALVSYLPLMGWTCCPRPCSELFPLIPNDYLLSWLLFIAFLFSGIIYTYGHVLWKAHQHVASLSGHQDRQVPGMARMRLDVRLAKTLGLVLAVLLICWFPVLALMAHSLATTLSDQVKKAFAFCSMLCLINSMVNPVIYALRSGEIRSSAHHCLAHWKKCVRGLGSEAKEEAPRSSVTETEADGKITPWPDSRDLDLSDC

Sequence of CB1 receptor (P21554 whole entry): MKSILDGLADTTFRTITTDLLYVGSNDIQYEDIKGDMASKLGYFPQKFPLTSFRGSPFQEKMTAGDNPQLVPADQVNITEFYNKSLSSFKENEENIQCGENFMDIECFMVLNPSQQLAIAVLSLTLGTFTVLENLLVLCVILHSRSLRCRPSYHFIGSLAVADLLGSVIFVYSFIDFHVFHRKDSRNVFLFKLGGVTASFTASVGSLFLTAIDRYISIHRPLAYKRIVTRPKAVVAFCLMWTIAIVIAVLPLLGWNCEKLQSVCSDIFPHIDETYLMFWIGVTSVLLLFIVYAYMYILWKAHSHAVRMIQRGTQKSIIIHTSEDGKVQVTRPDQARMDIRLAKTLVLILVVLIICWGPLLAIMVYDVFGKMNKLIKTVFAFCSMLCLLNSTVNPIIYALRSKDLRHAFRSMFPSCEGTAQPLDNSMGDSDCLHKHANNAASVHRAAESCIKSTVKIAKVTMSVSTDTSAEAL

c12c3c4c5c1c1c6c7c2c2c8c3c3c9c4c4c%10c5c5c1c1c6c6c%11c7c2c2c7c8c3c3c8c9c4c4c9c%10c5c5c1c1c6c6c%11c2c2c7c3c3c8c4c4c9c5c1c1c6c2c3c41 [Example C60, buckminsterfullerene]
toxicity ([1]; even high doses): does not exhibit toxicity | rodent life span ([1]; some rodents): doubled | solubility in lipids or aqueous solutions: not typically soluble

COc1ccc(/C=C/c2cc(OC)cc(=O)o2)cc1 [Yangonin]
affinity to the CB1 receptor [2]: significant affinity

C=C1CC/C=C(\C)CC[C@@H]2[C@@H]1CC2(C)C [beta-caryophyllene]
agonist activity at peripheral CB2-receptors [3]: selective agonist
